Measurements: patent US20250034136A1 (Nimbus Wadjet, Inc., priority 2023, published 2025)
Where two headings read alike, the source gives them in different places.

Key:
[1] = target: WRN (BV08), human Werner helicase (Uniprot Q14191, amino acids 517-1235 with L1074F point mutation) (Homo sapiens (Human), UniProt Q14191, L1074F); experiment: WRN (BV08) ADP-Glo assay; format: biochemical; conditions: class symbols A-E, read-out: ADP-Glo_hWRN_IC50
[2] = system: p21 induction in HCT116 cells; experiment: p21 induction in HCT116 cells; format: cell-based; conditions: Homo sapiens, HCT-116, 24 h, read-out: P21_EC50
In short: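 HCT116 cells, 2,000/well, treated 24 h at 37 °C with 11-point compound dilutions in duplicate. Fixed, then immunostained for p21 and GAPDH and read by near-IR imaging at 800/700 nm. Normalized to DMSO (low) and reference WRN inhibitor (high) controls; EC50 from non-linear regression.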

[3] = HCT116 cells, 24 h compound incubation

WRN (BV08), human Werner helicase (Uniprot Q14191, amino acids 517-1235 with L1074F point mutation), sequence (Q14191 other isoform, or with tags, fused parts or gaps L1074F (already in the parent)): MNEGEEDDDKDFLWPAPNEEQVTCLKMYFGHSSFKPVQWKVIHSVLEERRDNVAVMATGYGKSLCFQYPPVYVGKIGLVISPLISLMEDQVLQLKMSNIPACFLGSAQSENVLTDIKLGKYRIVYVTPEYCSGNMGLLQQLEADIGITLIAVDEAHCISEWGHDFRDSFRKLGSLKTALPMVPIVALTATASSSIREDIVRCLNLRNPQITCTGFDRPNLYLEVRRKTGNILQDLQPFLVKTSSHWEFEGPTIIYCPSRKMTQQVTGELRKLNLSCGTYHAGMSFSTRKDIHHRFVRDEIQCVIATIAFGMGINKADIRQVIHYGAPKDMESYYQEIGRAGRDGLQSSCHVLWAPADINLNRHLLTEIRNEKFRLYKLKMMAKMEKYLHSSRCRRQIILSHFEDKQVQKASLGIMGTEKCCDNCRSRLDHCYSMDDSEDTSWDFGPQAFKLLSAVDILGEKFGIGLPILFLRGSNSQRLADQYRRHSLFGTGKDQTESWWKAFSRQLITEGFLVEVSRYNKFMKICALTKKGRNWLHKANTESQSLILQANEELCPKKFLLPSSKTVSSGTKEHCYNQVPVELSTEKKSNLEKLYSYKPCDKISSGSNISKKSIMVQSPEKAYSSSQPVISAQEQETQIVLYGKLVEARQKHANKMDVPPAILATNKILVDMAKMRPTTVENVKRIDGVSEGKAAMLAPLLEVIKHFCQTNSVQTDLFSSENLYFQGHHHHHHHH

| Compound | IC50 [1] [nM] | EC50 [2, 3] [nM] | EC50 [2] [nM] |
| --- | --- | --- | --- |
| CCc1c(N2CCN(C(=O)c3ncnc(C)c3O)CC2)c(=O)c2nc(C3CC3)cnc2n1CC(=O)Nc1ccc(C(F)(F)F)cc1Cl [I-10, N-(2-chloro-4-(trifluoromethyl)phenyl)-2-(2-cyclopropyl-6-ethyl-7-(4-(5-hydroxy-6-methylpyrimidine-4-carbonyl)piperazin-1-yl)-8-oxopyrido[2,3-b]pyrazin-5(8H)-yl)acetamide] | 5 to 50 | 2000 to 5000 |  |
| CCc1c(N2CCN(C(=O)c3ncnc(C)c3O)CC2)c(=O)c2nc3sc(C)cc3nc2n1CC(=O)Nc1ccc(C(F)(F)F)cc1Cl [I-113, N-(2-chloro-4-(trifluoromethyl)phenyl)-2-(6-ethyl-7-(4-(5-hydroxy-6-methylpyrimidine-4-carbonyl)piperazin-1-yl)-2-methyl-8-oxopyrido[2,3-b]thieno[2,3-e]pyrazin-5(8H)-yl)acetamide] | ≤ 5 | < 500 |  |
| CCc1c(N2CCN(C(=O)c3ncnc(C)c3O)CC2)c(=O)c2nc(-c3cn[nH]c3)cnc2n1CC(=O)Nc1ccc(C(F)(F)F)cc1Cl [I-94, N-(2-chloro-4-(trifluoromethyl)phenyl)-2-(6-ethyl-7-(4-(5-hydroxy-6-methylpyrimidine-4-carbonyl)piperazin-1-yl)-8-oxo-2-(1H-pyrazol-4-yl)pyrido[2,3-b]pyrazin-5(8H)-yl)acetamide] | 5 to 50 | > 5000 |  |
| CCc1c(N2CCN(C(=O)c3ncnc(C)c3O)[C@H]3CC[C@@H]32)c(=O)c2nc(N(C)C)cnc2n1CC(=O)Nc1ccc(C(F)(F)F)cc1 [I-104, 2-(2-(dimethylamino)-6-ethyl-7-((1S,6S)-5-(5-hydroxy-6-methylpyrimidine-4-carbonyl)-2,5-diazabicyclo[4.2.0]octan-2-yl)-8-oxopyrido[2,3-b]pyrazin-5(8H)-yl)-N-(4-(trifluoromethyl)phenyl)acetamide] | 5 to 50 | < 500 |  |
| CCc1c(N2CCN(C(=O)c3ncnc(C)c3O)CC2)c(=O)c2nc(C=C3CC(OC)C3)cnc2n1CC(=O)Nc1ccc(C(F)(F)F)cc1Cl (centres unmarked) [I-117, N-(2-chloro-4-(trifluoromethyl)phenyl)-2-(6-ethyl-7-(4-(5-hydroxy-6-methylpyrimidine-4-carbonyl)piperazin-1-yl)-2-((3-methoxycyclobutylidene)methyl)-8-oxopyrido[2,3-b]pyrazin-5(8H)-yl)acetamide] | 5 to 50 | < 500 |  |
| CCc1c(N2CCN(C(=O)c3ncnc(C)c3O)C[C@@H]2C)c(=O)c2nc(N(C)C)cnc2n1CC(=O)Nc1ccc(C(F)(F)F)cc1Cl [I-98, (S)—N-(2-chloro-4-(trifluoromethyl)phenyl)-2-(2-(dimethylamino)-6-ethyl-7-(4-(5-hydroxy-6-methylpyrimidine-4-carbonyl)-2-methylpiperazin-1-yl)-8-oxopyrido[2,3-b]pyrazin-5(8H)-yl)acetamide] | 5 to 50 | < 500 |  |
| CCc1c(N2CCN(C(=O)c3ncnc(C)c3O)[C@H]3CC[C@@H]32)c(=O)c2nc(N3CC[C@H](O)C3)cnc2n1CC(=O)Nc1ccc(C(F)(F)F)cc1Cl [I-271, N-[2-chloro-4-(trifluoromethyl)phenyl]-2-{6-ethyl-7-[(1S,6S)-5-(5-hydroxy-6-methylpyrimidine-4-carbonyl)-2,5-diazabicyclo[4.2.0]octan-2-yl]-2-[(3S)-3-hydroxypyrrolidin-1-yl]-8-oxo-5H,8H-pyrido[2,3-b]pyrazin-5-yl}acetamide] | 5 to 50 | 500 to 2000 |  |
| CCc1c(N2CCN(C(=O)c3ncnc(C)c3O)CC2)c(=O)c2nc(C3=CCN(C(=O)OC)C3)cnc2n1CC(=O)Nc1ccc(C(F)(F)F)cc1Cl [I-159, methyl 3-[5-({[2-chloro-4-(trifluoromethyl)phenyl]carbamoyl}methyl)-6-ethyl-7-[4-(5-hydroxy-6-methylpyrimidine-4-carbonyl)piperazin-1-yl]-8-oxo-5H,8H-pyrido[2,3-b]pyrazin-2-yl]-2,5-dihydro-1H-pyrrole-1-carboxylate] | 5 to 50 | > 5000 |  |
| CCc1c(N2CCN(C(=O)c3ncnc(C)c3O)CC2)c(=O)c2nc(N(C)[C@H]3CC[C@@H]3OC)cnc2n1CC(=O)Nc1ccc(C(F)(F)F)cc1Cl (racemic) [I-143, rac-N-(2-chloro-4-(trifluoromethyl)phenyl)-2-(6-ethyl-7-(4-(5-hydroxy-6-methylpyrimidine-4-carbonyl)piperazin-1-yl)-2-((2-methoxycyclobutyl)(methyl)amino)-8-oxopyrido[2,3-b]pyrazin-5(8H)-yl)acetamide] | 5 to 50 | 2000 to 5000 |  |
| CCc1c(N2CCN(C(=O)c3ncnc(C)c3O)CC2)c(=O)c2nc3nc(C)sc3nc2n1CC(=O)Nc1ccc(C(F)(F)F)cc1Cl [I-95, N-(2-chloro-4-(trifluoromethyl)phenyl)-2-(6-ethyl-7-(4-(5-hydroxy-6-methylpyrimidine-4-carbonyl)piperazin-1-yl)-2-methyl-8-oxopyrido[2,3-b]thiazolo[4,5-e]pyrazin-5(8H)-yl)acetamide] | 5 to 50 |  | 500 to 2000 |
| CCc1c(N2CCN(C(=O)c3c(Oc4cnn(C)c4)ncc(C)c3O)[C@H]3CC[C@@H]32)c(=O)c2nc(N(C)C)cnc2n1CC(=O)Nc1ccc(C(F)(F)F)cc1Cl [I-273, N-[2-chloro-4-(trifluoromethyl)phenyl]-2-[2-(dimethylamino)-6-ethyl-7-[(1S,6S)-5-{4-hydroxy-5-methyl-2-[(1-methyl-1H-pyrazol-4-yl)oxy]pyridine-3-carbonyl}-2,5-diazabicyclo[4.2.0]octan-2-yl]-8-oxo-5H,8H-pyrido[2,3-b]pyrazin-5-yl]acetamide] | 5 to 50 | < 500 |  |
| CCc1c(N2CCN(C(=O)c3ncnc(C)c3O)CC2)c(=O)c2nc(-c3ccnn3C)cnc2n1CC(=O)Nc1ccc(C(F)(F)F)cc1Cl [I-137, N-[2-chloro-4-(trifluoromethyl)phenyl]-2-{6-ethyl-7-[4-(5-hydroxy-6-methylpyrimidine-4-carbonyl)piperazin-1-yl]-2-(1-methyl-1H-pyrazol-5-yl)-8-oxo-5H,8H-pyrido[2,3-b]pyrazin-5-yl}acetamide] | 5 to 50 | > 5000 |  |
| CCc1c(N2CCN(C(=O)c3c(OC)ncc(C)c3O)CC2)c(=O)c2nc(N(C)C)cnc2n1CC(=O)Nc1ccc(C(F)(F)F)cc1Cl [I-204, N-[2-chloro-4-(trifluoromethyl)phenyl]-2-[2-(dimethylamino)-6-ethyl-7-[4-(4-hydroxy-2-methoxy-5-methylpyridine-3-carbonyl)piperazin-1-yl]-8-oxo-5H,8H-pyrido[2,3-b]pyrazin-5-yl]acetamide] | 5 to 50 | < 500 |  |
| CCc1c(N2CCN(C(=O)c3ncnc(C)c3O)CC2)c(=O)c2nc(N3CCCC3C(C)(C)O)cnc2n1CC(=O)Nc1ccc(C(F)(F)F)cc1Cl (centres unmarked) [I-152, N-[2-chloro-4-(trifluoromethyl)phenyl]-2-{6-ethyl-7-[4-(5-hydroxy-6-methylpyrimidine-4-carbonyl)piperazin-1-yl]-2-[2-(2-hydroxypropan-2-yl)pyrrolidin-1-yl]-8-oxo-5H,8H-pyrido[2,3-b]pyrazin-5-yl}acetamide] | 5 to 50 | > 5000 |  |
| CCc1c(N2CCN(C(=O)c3ncnc(C)c3O)CC2)c(=O)c2nc(/C=C3\CCC3C)cnc2n1CC(=O)Nc1ccc(C(F)(F)F)cc1Cl (centres unmarked) [I-142, N-[2-chloro-4-(trifluoromethyl)phenyl]-2-{6-ethyl-7-[4-(5-hydroxy-6-methylpyrimidine-4-carbonyl)piperazin-1-yl]-2-[(2-methylcyclobutylidene)methyl]-8-oxo-5H,8H-pyrido[2,3-b]pyrazin-5-yl}acetamide] | ≤ 5 | 500 to 2000 |  |
| CCc1c(N2CCN(C(=O)c3ncnc(C)c3O)[C@@H](C)[C@@H]2C)c(=O)c2nc(N(C)C)cnc2n1CC(=O)Nc1ccc(C(F)(F)F)cc1Cl (single isomer, unassigned) [I-234, N-(2-chloro-4-(trifluoromethyl)phenyl)-2-(2-(dimethylamino)-6-ethyl-7-(4-(5-hydroxy-6-methylpyrimidine-4-carbonyl)-2,3-dimethylpiperazin-1-yl)-8-oxopyrido[2,3-b]pyrazin-5(8H)-yl)acetamide] | 5 to 50 | 500 to 2000 |  |
| CCc1c(N2CCN(C(=O)c3ncc4c(c3O)OCC4)CC2)c(=O)c2ncc(C)nc2n1CC(=O)Nc1ccc(C(F)(F)F)cc1Cl [I-68, N-(2-chloro-4-(trifluoromethyl)phenyl)-2-(6-ethyl-7-(4-(7-hydroxy-2,3-dihydrofuro[3,2-c]pyridine-6-carbonyl)piperazin-1-yl)-3-methyl-8-oxopyrido[2,3-b]pyrazin-5(8H)-yl)acetamide] | 5 to 50 | > 5000 |  |
| CCc1c(N2CCN(C(=O)c3ncnc(C)c3O)C(C)(C)C2)c(=O)c2nc(N(C)C)cnc2n1CC(=O)Nc1ccc(C(F)(F)F)cc1Cl [I-87, N-(2-chloro-4-(trifluoromethyl)phenyl)-2-(2-(dimethylamino)-6-ethyl-7-(4-(5-hydroxy-6-methylpyrimidine-4-carbonyl)-3,3-dimethylpiperazin-1-yl)-8-oxopyrido[2,3-b]pyrazin-5(8H)-yl)acetamide] | 5 to 50 | 500 to 2000 |  |
| CCc1c(N2CCN(C(=O)c3ncnc(C)c3O)CC2)c(=O)c2ncc(C)nc2n1CC(=O)Nc1ccc(C(F)(F)F)cc1Cl [I-1, N-(2-chloro-4-(trifluoromethyl)phenyl)-2-(6-ethyl-7-(4-(5-hydroxy-6-methylpyrimidine-4-carbonyl)piperazin-1-yl)-3-methyl-8-oxopyrido[2,3-b]pyrazin-5(8H)-yl)acetamide] | 5 to 50 |  | 2000 to 5000 |
